# Tests used:
# Test in all cases: relative viability (nuclei count vs DMSO), 5 days (fraction); higher = more cells survive
# [1] = compound: Cc1cc(Nc2cc(N3CCN(C)CC3)nc(Sc3ccc(NC(=O)C4CC4)cc3)n2)n[nH]1 [Tozasertib] + C[C@]1(O)C[C@@H](c2nc(-c3ccc4ccc(-c5ccccc5)nc4c3)c3c(N)nccn32)C1 [Linsitinib] (partner 1 µM)
# Method in brief: (§1)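 One day after seeding in 1536-well plates, lung cancer cell lines were dosed by pin tool. Dosing was either single-drug or a fixed anchor-drug dose plus five library-drug doses (not always all listed) in √10 steps. After 5 days, nuclei were stained in one fix-and-stain step and counted on 4× images, and relative viability is the nuclei count of treated wells over that of vehicle wells, given as the median of duplicate plates.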
# [2] = compound: Cc1cc(Nc2cc(N3CCN(C)CC3)nc(Sc3ccc(NC(=O)C4CC4)cc3)n2)n[nH]1 [Tozasertib] + O=C(c1cc(Cc2n[nH]c(=O)c3ccccc23)ccc1F)N1CCN(C(=O)C2CC2)CC1 [Olaparib] (partner 8 µM)
# Method in brief: as §1
# [3] = compound: Cc1cc(Nc2cc(N3CCN(C)CC3)nc(Sc3ccc(NC(=O)C4CC4)cc3)n2)n[nH]1 [Tozasertib] + CS(=O)(=O)N1CCN(Cc2cc3nc(-c4cccc5[nH]ncc45)nc(N4CCOCC4)c3s2)CC1 [Pictilisib] (partner 1 µM)
# Method in brief: as §1
# [4] = compound: Cc1cc(Nc2cc(N3CCN(C)CC3)nc(Sc3ccc(NC(=O)C4CC4)cc3)n2)n[nH]1 [Tozasertib] + C[C@@H](Oc1cc(-c2cnn(C3CCNCC3)c2)cnc1N)c1c(Cl)ccc(F)c1Cl [Crizotinib] (partner 1 µM)
# Method in brief: as §1
# [5] = compound: Cc1cc(Nc2cc(N3CCN(C)CC3)nc(Sc3ccc(NC(=O)C4CC4)cc3)n2)n[nH]1 [Tozasertib] + COc1cc2c(Oc3ccc(NC(=O)C4(C(=O)Nc5ccc(F)cc5)CC4)cc3F)ccnc2cc1OCCCN1CCOCC1 [Foretinib] (partner 0.25 µM)
# Method in brief: as §1
Cell Line,relative viability ([1]; first compound 0.004 µM),relative viability ([1]; first compound 0.01265 µM),relative viability ([1]; first compound 0.04 µM),relative viability ([1]; first compound 0.1265 µM),relative viability ([2]; first compound 0.004 µM),relative viability ([2]; first compound 0.01265 µM),relative viability ([2]; first compound 0.04 µM),relative viability ([2]; first compound 0.1265 µM),relative viability ([3]; first compound 0.004 µM),relative viability ([3]; first compound 0.01265 µM),relative viability ([3]; first compound 0.04 µM),relative viability ([3]; first compound 0.1265 µM),relative viability ([4]; first compound 0.004 µM),relative viability ([4]; first compound 0.01265 µM),relative viability ([4]; first compound 0.04 µM),relative viability ([4]; first compound 0.1265 µM),relative viability ([5]; first compound 0.004 µM),relative viability ([5]; first compound 0.01265 µM),relative viability ([5]; first compound 0.04 µM),relative viability ([5]; first compound 0.1265 µM)
PC-3 [JPC-3],0.902,0.935,0.971,0.972,0.807,1.15,1.16,1.14,0.657,0.724,0.732,0.598,0.884,0.973,0.94,0.945,1,1.06,1.07,0.961
PC-14,1.01,1,1.03,0.828,,0.208,0.256,0.224,0.14,0.541,0.593,0.725,0.896,0.914,1.02,0.884,0.966,1.09,1.04,0.986
RERF-LC-KJ,0.876,0.861,0.907,0.777,0.945,0.871,0.865,0.668,0.503,0.594,0.597,0.456,0.815,0.792,0.734,0.689,0.795,0.831,0.957,
SK-LU-1,1.32,1.09,1.03,0.957,0.466,0.455,0.432,0.518,0.71,0.508,0.639,0.458,0.932,0.977,,0.889,0.889,0.874,0.862,0.752
SK-MES-1,1.1,1.02,1.14,1.1,0.791,0.666,0.71,0.657,0.401,0.302,0.35,0.326,1.04,0.929,0.94,0.901,0.934,0.814,0.884,1.03
SW 1573,0.76,0.901,,0.517,0.479,0.452,0.456,0.208,0.541,0.541,0.546,0.293,0.782,0.706,0.762,0.273,0.839,0.905,1.02,0.8
UMC-11,1.1,1.03,1.06,0.173,0.367,0.47,0.362,0.257,1.09,0.788,0.864,0.463,0.478,0.568,0.416,0.118,0.985,0.995,0.788,0.186
